In brackets after ≈: the same amount, converted by molar mass.
How the values were obtained:
Format in all cases: physicochemical
[1] = HPLC method quantifying low levels of D9-THC in stored cannabidiol samples
Experimental: An analytical method using HPLC was developed to determine low levels of delta-9-tetrahydrocannabinol in cannabidiol samples. A Waters XBridge C18 3.5 μm, 3.0×150 mm column was employed and operated at a temperature of 30° C., UV wavelength of 225 nm, and injection size of 20 μL. Mobile Phase A was 0.02% (v/v) acetic acid in H2O, while mobile phase B was 0.02% (v/v) acetic acid in acetonitrile (ACN).
An aliquot of 0.5 mL of a D9-THC reference standard (Cerilliant, 1.0 mg/mL MeOH solution) was diluted in a 500-mL volumetric flask using sample diluent (70/30 Acetonitrile/H2O, v/v). The D9-THC concentration was 0.001 mg/mL in the standard stock solution, which corresponded with 200 ppm of D9-THC as compared to the CBD sample solution (nominal CBD concentration was 5.0 mg/mL).
An Aliquot of 5 mL of THC Stock Standard Solution was diluted in a 100-mL volumetric flask using the sample diluent. The D9-THC concentration was 0.00005 mg/mL in the working standard solution, corresponding with 10 ppm of D9-THC as compared to the CBD sample solution.
About 50 mg of cannabidiol sample was weighed into a 10-mL volumetric flask. The volumetric flask was diluted to volume using sample diluent and mixed well.
A minimum of 6 working standard solutions were injected prior to the sample set. Furthermore, a maximum of 6 injections of CBD sample were injected between bracketing working standard solutions.
The amount of THC in each sample was calculated using the following
For reference, each chromatogram in FIG. 6A through FIG. 6F is shown against a 10 ppm THC working standard. For samples 1, 2, and 3, roughly 50.28 mg, 50.77 mg, and 55.60 mg material was used.

[2] = Particle size distribution (Mastersizer 2000 laser diffraction, Morphologi G3)
Text: A Mastersizer 2000 was used to analyze the particle size distribution in cannabidiol samples. This method involved laser diffraction to measure the particle size distribution by the volume standard. Roughly 1 g of each sample was weighed and transferred along the middle of the sample tray. The sample feed gates were 6 mm-8 mm. The instrument software parameters were set to a dispersive air pressure of 3 bar, vibration feed rate of 60%, refractive index of 1.5295, absorption index of 0.01, and size range from 0.020 μm to 2000.000 μm. FIG. 8A-FIG. 8R show the result analysis report for each sample measured as well as their respective particle size distribution graph. Malvern Pananalytical's Morphologi G3 Analyzer was used in another series of experiments to examine sample volume size distribution.

[3] = Quantitative thermodynamic solubility determination at ambient temperature, evaporated solids analyzed by XRPD; settings: for solubility: thermodynamic from solid, ambient temperature
Experimental: A quantitative thermodynamic solubility determination was performed on crude cannabidiol obtained via Protocol 2 to aid in the selection of solvents for crystallization experiments. The clear solutions obtained from each solubility determination experiment were evaporated and the obtained solids were analyzed by XRPD.
When the material precipitated as a solid, it was classified as Form A. However, in 11 experiments, the material obtained after evaporation was oil-like in appearance and could not be analyzed by XRPD. When no XRPD record was generated, the field was defined as “Not Applicable” (N/A).

[4] = after storage at −16° C. for two years
[5] = after stored for 23 days at 55-60° C.

For `C=C(C)[C@@H]1CCC(C)=C[C@H]1c1c(O)cc(CCCCC)cc1O` [Sample 6, Cannabidiol], the “Result (D9-THC in ppm)” value [1, 4] was 7.3 ppm.

In the case of `C=C(C)[C@@H]1CCC(C)=C[C@H]1c1c(O)cc(CCCCC)cc1O` [Sample 4, Cannabidiol], the “Result (D9-THC in ppm)” value [1, 4] was 8.3 ppm.

With `C=C(C)[C@@H]1CCC(C)=C[C@H]1c1c(O)cc(CCCCC)cc1O` [Sample 2, Cannabidiol] the “Result (D9-THC in ppm)” value [1, 5] was 5.9 ppm, the “Malvern 2K (dry dispersion) D10” value [2] was “D10: 8.0 um” and the “Malvern 2K (dry dispersion) D50” value [2] was “D50: 23.9 um”. The “Malvern 2K (dry dispersion) D90” value [2] was “D90: 157.5 um”.

With `C=C(C)[C@@H]1CCC(C)=C[C@H]1c1c(O)cc(CCCCC)cc1O` [Sample 3, Cannabidiol] the “Result (D9-THC in ppm)” value ([1]; after storage for one month at room temperature (25° C.)) was 5.1 ppm.

For `C=C(C)[C@@H]1CCC(C)=C[C@H]1c1c(O)cc(CCCCC)cc1O` [crude cannabidiol, cannabidiol], the solubility ([3]; organic solvent or mixture, 1,2-Dimethoxyethane) was > 100 mg/mL, the solubility ([3]; organic solvent or mixture, 1-Propanol) was > 100 mg/mL and the solubility ([3]; organic solvent or mixture, 1.4-Dioxane) was > 100 mg/mL. For the same compound, the solubility ([3]; organic solvent or mixture, 2-Butanone) was > 100 mg/mL, the solubility ([3]; organic solvent or mixture, 2-propanol) was > 100 mg/mL and the solubility ([3]; organic solvent or mixture, Acetone) was > 100 mg/mL. The solubility ([3]; organic solvent or mixture, Acetonitrile) was > 100 mg/mL, the solubility ([3]; organic solvent or mixture, Anisole) was > 100 mg/mL and the solubility ([3]; organic solvent or mixture, Chloroform) was > 100 mg/mL. For the same compound, the solubility ([3]; organic solvent or mixture, Cumene) was > 100 mg/mL, the solubility ([3]; organic solvent or mixture, Cyclohexane) was > 100 mg/mL and the solubility ([3]; organic solvent or mixture, Dichloromethane) was > 100 mg/mL. The solubility ([3]; organic solvent or mixture, Diethyl ether) was > 100 mg/mL, the solubility ([3]; organic solvent or mixture, Ethanol) was > 100 mg/mL and the solubility ([3]; organic solvent or mixture, Ethyl Acetate) was > 100 mg/mL. For the same compound, the solubility ([3]; organic solvent or mixture, Ethyl Formate) was > 100 mg/mL, the solubility ([3]; organic solvent or mixture, Heptane) was 64.6 mg/mL (≈ 205 mM) and the solubility ([3]; organic solvent or mixture, Isobutanol) was > 100 mg/mL. For the same compound, the solubility ([3]; organic solvent or mixture, Isopropyl acetate) was > 100 mg/mL, the solubility ([3]; organic solvent or mixture, Methanol) was > 100 mg/mL and the solubility ([3]; organic solvent or mixture, Tert-Butyl methyl ether) was > 100 mg/mL. For the same compound, the solubility ([3]; organic solvent or mixture, Tetrahydrofuran) was > 100 mg/mL, the solubility ([3]; organic solvent or mixture, Toluene) was > 100 mg/mL and the solubility ([3]; organic solvent or mixture, p-Xylene) was > 100 mg/mL. For the same compound, the XRPD ([3]; solid after evaporation of 1.4-Dioxane solution) was “Form A”, the XRPD ([3]; solid after evaporation of 2-Butanone solution) was “Form A” and the XRPD ([3]; solid after evaporation of Chloroform solution) was “Form A”. For the same compound, the XRPD ([3]; solid after evaporation of Cyclohexane solution) was “Form A”, the XRPD ([3]; solid after evaporation of Dichloromethane solution) was “Form A” and the XRPD ([3]; solid after evaporation of Diethyl ether solution) was “Form A”. For the same compound, the XRPD ([3]; solid after evaporation of Ethyl Acetate solution) was “Form A”, the XRPD ([3]; solid after evaporation of Ethyl Formate solution) was “Form A” and the XRPD ([3]; solid after evaporation of Heptane solution) was “Form A”. For the same compound, the XRPD ([3]; solid after evaporation of Isopropyl acetate solution) was “Form A”, the XRPD ([3]; solid after evaporation of Tert-Butyl methyl ether solution) was “Form A” and the XRPD ([3]; solid after evaporation of Tetrahydrofuran solution) was “Form A”. For the same compound, the XRPD ([3]; solid after evaporation of Toluene solution) was “Form A”, the XRPD ([3]; solid after evaporation of Water solution) was “Form A” and the solubility ([3]; Water) was < 0.13 mg/mL.

For `C=C(C)[C@@H]1CCC(C)=C[C@H]1c1c(O)cc(CCCCC)cc1O` [Sample 5, Cannabidiol], the “Result (D9-THC in ppm)” value [1, 4] was 21.7 ppm.

For `C=C(C)[C@@H]1CCC(C)=C[C@H]1c1c(O)cc(CCCCC)cc1O` [Sample 1, Cannabidiol], the “Result (D9-THC in ppm)” value [1, 5] was 1.9 ppm, the “Malvern 2K (dry dispersion) D10” value [2] was “D10: 7.8 um” and the “Malvern 2K (dry dispersion) D50” value [2] was “D50: 21.8 um”. The “Malvern 2K (dry dispersion) D90” value [2] was “D90: 152.9 um”.

Reference: patent US12144795B2, “Cannabidiol compositions having modified cannabinoid profiles” (priority 2018, dated 2024)
